Measurements published in patent US20230114207A1, “THE COMBINATION OF CYCLIN DEPENDENT KINASE 7 INHIBITOR AND IMMUNOTHERAPY FOR TREATMENT OF CANCER” (Dana-Farber Cancer Institute, Inc., priority 2019, published 2023).

Key:
cGAS-STING pathway = cGAS-STING pathway analysis (western blotting; cGAS knockout RT-qPCR); type: cell-based, mouse, human; details: DMS79, RPP631, cGAS knockout RPP631
Procedure: (§1) Cell pellets were collected and then subjected to total RNA extraction using RNeasy Plus Mini Kit (QIAGEN, Cat #74136) according to the manufacturer's instructions, or using TRIzol:Chloroform phase-separation by centrifugation followed by RNA precipitation using isopropanol. The extracted RNA was reversely transcribed into cDNA using the High-Capacity RNA-to-cDNA™ Kit (Thermo Fisher Scientific, Cat #4387406) according to the manufacturer's instructions. The obtained cDNA samples were diluted and used for RT-qPCR. PowerUp™ SYBR™ Green Master Mix (Thermo Fisher Scientific, Cat #A25742) or TaqMan Gene Expression Master Mix (Life Technologies, Cat #4369514). Gene specific primers with sequences listed in Table 3 were used for PCR amplification and detection on the StepOnePlus™ Real-Time PCR System (Thermo Fisher Scientific). RT-qPCR data were normalized to Actb (mouse cells) or GUSB (human cells) and presented as fold changes of gene expression in the test sample compared to the control.
Cells in culture were collected by centrifuging at 1,500 rpm and then washed with ice-cold PBS twice to completely remove residual medium. […] Protein concentrations in lysates were measured by Pierce™ BCA Protein Assay Kit (Thermo Fisher Scientific, Cat #23225) and followed by the addition of SDS loading buffer (6×) and heated at 95° C. for 5 min. […]

CDK7-Cyclin H complexes = assay: Competitive pulldown assay (Bio-THZ1), Cyclin H; type: cell-based, mouse, human; details: SCLC cells (RPP631, DMS79) treated 6 hours
Procedure: Bio-THZ1 pulldown experiments followed by western blotting of enriched proteins was performed as described in Kwiatkowski, et al., Nature, 2014, 511, 616-620. Briefly, cells were treated with YKL-5-124 or DMSO for 6 hr (in vitro) or 72 hr (in vivo). Following treatment, cells were washed twice with cold PBS and then lysed in the following lysis buffer: 50 mM TrisHCI pH 8.0, 150 mM NaCl, 1% NP-40, 5 mM EDTA, 1 mM DTT, and protease/phosphatase cocktails. Following clearance, lysates were treated with biotinylated THZ1 for pulldown overnight at 4° C. Lysates were further incubated at room temperature for 3 hr to increase the efficiency of covalent bond formation. Lysates were then incubated with streptavidin agarose for pulldown for an additional 2-3 hr at 4° C. Agarose beads were washed 5 times with lysis buffer and then boiled in 2×SDS at 95° C. SDS-page resolved precipitated proteins were probed for the indicated proteins.

RP orthotopic model = assay: Treatment study in RP orthotopic SCLC model; type: in vivo, mouse
Procedure: (§2) All animal studies were reviewed and approved by the Institutional Animal Care and Use Committee (IACUC) at the New York University Langone Health (NYULH) and Dana-Farber Cancer Institute (DFCI). From 6 weeks of age, mice were induced with adenovirus-Cre recombinase (Ad-Cre) by intratracheal intubation to allow cre-lox-mediated recombination of floxed Rb1, p53 and p130 alleles. For syngeneic orthotopic models, ultrasound-guided transthoracic injection was performed using 200,000 RPP631, RP or RPP-MYC cells in 30 μL PBS directly into the lung of 6 to S-week-old C57BL/6 (Jackson Laboratory, Stock No: 000664). For OT-IT cell assay, OT-I mice were purchased from the Jackson Laboratory (Stock No: 003S31). Both males and females mice were used and all mice were maintained in accordance with the respective NYULH and DFCI on the care, welfare, and treatment of laboratory animals. […]
(§3) Animals were anesthetized with isoflurane to perform MRI of the lung field using BioSpec USR70/30 horizontal bore system (Bruker) to scan 24 consecutive sections. Tumor volumes within the whole lung were quantified using 3-D slicer software to reconstruct MRI volumetric measurements as described previously. […]

RPP631 and DMS79 cells = assay: Cell cycle analysis (propidium iodide flow cytometry); type: cell-based, mouse, human
Procedure: Cells were seeded in 6-well plates (0.5-1×10^6 cells/well) in media and treated with YKL-5-124 at indicated concentrations and time points. Cells were collected by centrifugation, washed in cold PBS and resuspended in 1 ml of 80% EtOH in PBS and stored overnight at −20° C. Cells were again collected by centrifugation and washed 3× with cold PBS. Hereafter cells were resuspended in PBS containing: 0.1% Triton X-100, 25 μg/ml Propidium Iodide (PI) and 0.2 mg/ml RNase A and incubated for 45 min at 37° C. After incubation, cells were placed at 4° C. until ready for analysis with flow cytometry. Cells were gated for PI staining and cell accumulation in G1, S and G2/M were calculated using ModFit LT software.

[1] = tested on: Tnf, Cxcl10 and Cxcl9 in RPP631; assay: RT-qPCR of Tnf, Cxcl10 and Cxcl9; type: cell-based, mouse; details: after 48 hr
Procedure: as §1

RPP-MYC orthotopic model = assay: Treatment study in RPP-MYC orthotopic SCLC model; type: in vivo, mouse
Procedure: as §2, §3

C=CC(=O)Nc1ccc(C(=O)Nc2n[nH]c3c2CN(C(=O)N[C@H](CN(C)C)c2ccccc2)C3(C)C)cc1 [YKL-5-124]
dependence of the immune stimulatory effect on the cGAS-STING pathway (cGAS-STING pathway): independent of this pathway
block of Cyclin H pulldown (CDK7-Cyclin H complexes): efficiently prevented
added median survival benefit (RP orthotopic model; RP model, vs control): approximately 30 days
tumor response / tumor growth (MRI tumor volume) (RP orthotopic model; RP orthotopic model): notably delayed tumor growth
cells in G1 phase (RPP631 and DMS79 cells; 72 hours): significant accumulation
cells in S phase (RPP631 and DMS79 cells; 72 hours): corresponding loss
percentage of cells in G2/M phase (RPP631 and DMS79 cells; concentrations up to 500 nM): not significantly changed
tumor cell expression of Tnf, Cxcl10 and Cxcl9 [1]: significantly stimulated
tumor response / tumor growth (MRI tumor volume) (RPP-MYC orthotopic model): notably delayed tumor growth
